Test systems include A498 renal; A549 NSCLC; CAKI-1 renal; HL-60(TB) leukemia; HOP-62 NSCLC; M14 melanoma; MALME-3M melanoma; NCI-H460 lung; PC-3 prostate; SF-268 CNS.
Assay in all cases: inhibition of tumour cell growth, NCI panel, 48 h

“And” between values parts separate entries of the source, which are not always exact repeats. Equal values may be shown once.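 Cultured in 96-well plates, cells were exposed to test compound for 48 hours across five concentrations. The concentration for 50% growth inhibition is given as GI50. TGI marks complete inhibition of growth.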

Regarding `O=C(O)CP(=O)(c1ccccc1)c1ccccc1.O=C(O)CP(=O)(c1ccccc1)c1ccccc1.[Cd]`, the GI50 with A498 renal is 19.9 µM; in the experiment with A549 NSCLC, 17.1 µM; with CAKI-1 renal, 22.7 µM; in the experiment with HL-60(TB) leukemia, 15.9 µM; in the experiment on HOP-62 NSCLC, 18.6 µM; in the experiment on M14 melanoma, 17.3 µM. The GI50 in the experiment with MALME-3M melanoma was 0.536 µM; in the experiment with NCI-H460 lung, 3.9 µM; in the experiment on PC-3 prostate, 18 µM; with SF-268 CNS, 37.3 µM. Also, the TGI with A498 renal turned out to be 39.8 µM; with A549 NSCLC, 35.1 µM; in the experiment with CAKI-1 renal, 38.9 µM; with HL-60(TB) leukemia, 60.7 µM; with HOP-62 NSCLC, 46.1 µM; in the experiment with M14 melanoma, 53.8 µM. Further, the TGI in the experiment with MALME-3M melanoma is 3.76 µM; in the experiment on NCI-H460 lung, more than 100 µM; in the experiment with PC-3 prostate it was 35.1 µM; in the experiment with SF-268 CNS, more than 100 µM.
`Cc1cccc2c1NC(=O)C2(c1ccc(O)cc1)c1ccc(O)cc1`: the GI50 in the experiment on A498 renal was 0.559 µM; with A549 NSCLC, 21.1 µM; with CAKI-1 renal, 26.2 µM; in the experiment with HL-60(TB) leukemia it was 7.64 µM; in the experiment with HOP-62 NSCLC it was 14.8 µM; in the experiment on M14 melanoma, 15.5 µM. The GI50 was 17.8 µM in the experiment with MALME-3M melanoma, 18.5 µM in the experiment on NCI-H460 lung, 0.0497 µM with PC-3 prostate and 19.8 µM with SF-268 CNS. Moreover, the TGI in the experiment with A498 renal is 25.1 µM; in the experiment with A549 NSCLC, more than 100 µM; in the experiment with CAKI-1 renal it was more than 100 µM; in the experiment on HL-60(TB) leukemia, 39.6 µM; with HOP-62 NSCLC, 38.3 µM; with M14 melanoma it was 41 µM. In addition, the TGI with MALME-3M melanoma is 55.5 µM; in the experiment on NCI-H460 lung, 40.8 µM; with PC-3 prostate it was more than 62 µM; in the experiment with SF-268 CNS, more than 100 µM.
In the case of `Cc1ccc(C(CC(=O)c2ccccc2)C(C(=O)c2ccccc2)C(c2ccc(C)cc2)C2C(=O)NC(=S)NC2=O)cc1` (stereo unspecified), the GI50 in the experiment with A498 renal is 18.3 µM; in the experiment with A549 NSCLC, 12.8 µM; with CAKI-1 renal it was 7.7 µM; in the experiment on HL-60(TB) leukemia, 18.7 µM; with HOP-62 NSCLC, more than 50 µM; in the experiment on M14 melanoma, 27.2 µM. Also, the GI50 is 15.1 µM in the experiment with MALME-3M melanoma, 6.66 µM with NCI-H460 lung, 10.4 µM in the experiment on PC-3 prostate and 16.8 µM with SF-268 CNS. For the same compound, the TGI in the experiment with A498 renal was more than 50 µM; with A549 NSCLC, more than 50 µM; in the experiment with CAKI-1 renal, 35 µM; in the experiment on HL-60(TB) leukemia, more than 50 µM; with HOP-62 NSCLC, more than 50 µM; in the experiment on M14 melanoma, more than 50 µM. The TGI in the experiment with MALME-3M melanoma, in the experiment with NCI-H460 lung, in the experiment on PC-3 prostate and with SF-268 CNS was more than 50 µM throughout.
Take `Nc1nc(Cl)nc2c1ncn2C1CCC(COP(=O)(O)OP(=O)(O)OP(=O)(O)O)O1` (stereo unspecified): the TGI was more than 100 µM in the experiment on A498 renal; 78.8 µM with A549 NSCLC; more than 100 µM in the experiment with CAKI-1 renal; 63.7 µM in the experiment with HL-60(TB) leukemia; 51.1 µM with HOP-62 NSCLC; 36.7 µM in the experiment with M14 melanoma. Moreover, the TGI is more than 100 µM in the experiment on MALME-3M melanoma, more than 100 µM with NCI-H460 lung, 64.3 µM in the experiment with PC-3 prostate and more than 100 µM with SF-268 CNS.
Consider `O=C(Nc1ccc(Cl)cc1F)c1cc(Cl)ccc1O`, for which the GI50 in the experiment on A498 renal is 0.26 µM; in the experiment with A549 NSCLC, 1.34 µM; in the experiment on CAKI-1 renal it was 0.298 µM; in the experiment with HL-60(TB) leukemia it was 0.389 µM; in the experiment with HOP-62 NSCLC, 0.999 µM; in the experiment on M14 melanoma, 0.437 µM. Also, the GI50 in the experiment with MALME-3M melanoma is 0.256 µM; in the experiment on NCI-H460 lung it was 0.44 µM; in the experiment with PC-3 prostate, 1.28 µM; in the experiment with SF-268 CNS, 0.52 µM. Moreover, the TGI in the experiment on A498 renal was 0.924 µM; in the experiment with A549 NSCLC it was more than 100 µM; in the experiment on CAKI-1 renal, 2.52 µM; with HL-60(TB) leukemia it was 1.96 µM; in the experiment with HOP-62 NSCLC, more than 24.5 µM; in the experiment on M14 melanoma, 2.78 µM. The results for the TGI in the experiment with MALME-3M melanoma, in the experiment with PC-3 prostate and in the experiment on SF-268 CNS were 1.17 µM, 5.64 µM and more than 27.6 µM, respectively.
In the case of `O=C1C(Cl)=C(Nc2ccccn2)C(=O)c2ccccc21`, the GI50 was 12.9 µM in the experiment with A498 renal; 9.02 µM with A549 NSCLC; 3.82 µM in the experiment with CAKI-1 renal; 2.52 µM with HL-60(TB) leukemia; 2.57 µM in the experiment with HOP-62 NSCLC; 2.07 µM in the experiment with M14 melanoma. Further, the GI50 is 1.81 µM in the experiment on MALME-3M melanoma, 3.25 µM in the experiment with NCI-H460 lung, 2.27 µM in the experiment on PC-3 prostate and 2.74 µM in the experiment with SF-268 CNS. The TGI in the experiment on A498 renal stood at 25.6 µM; in the experiment on A549 NSCLC, 37 µM; in the experiment with CAKI-1 renal it was 18.8 µM; in the experiment on HL-60(TB) leukemia, 5.83 µM; in the experiment with HOP-62 NSCLC, 6.15 µM; in the experiment on M14 melanoma, 3.84 µM. Further, the TGI with MALME-3M melanoma was 3.65 µM; with NCI-H460 lung, 11.4 µM; with PC-3 prostate it was 8.35 µM; with SF-268 CNS, 7.55 µM.
For `COc1ccc(CCN2COc3ccc4ccc(=O)oc4c3C2)cc1OC`, the TGI in the experiment on A498 renal was more than 100 µM; in the experiment on A549 NSCLC, more than 100 µM; with CAKI-1 renal, more than 100 µM; in the experiment with HL-60(TB) leukemia, 41.7 µM; with HOP-62 NSCLC, more than 100 µM; in the experiment on M14 melanoma, more than 100 µM. Also, the TGI in the experiment on MALME-3M melanoma, in the experiment with NCI-H460 lung, with PC-3 prostate and with SF-268 CNS was more than 100 µM in each case.
In the case of `C/C=C1\C[C@@H]2C(OC)Nc3cc(O)c(OC)cc3C(=O)N2C1` (stereo partly specified), the TGI in the experiment with A498 renal was 0.0834 µM; in the experiment with A549 NSCLC, more than 100 µM; with HL-60(TB) leukemia it was 0.216 µM and 0.0852 µM; in the experiment with HOP-62 NSCLC, 0.0155 µM and < 0.0566 µM; in the experiment with M14 melanoma, 0.0428 µM and < 0.032 µM; in the experiment on MALME-3M melanoma it was 0.0148 µM. The TGI was 0.598 µM and 1.53 µM in the experiment with NCI-H460 lung; 0.404 µM and 0.478 µM with PC-3 prostate; 0.174 µM and 1.71 µM in the experiment with SF-268 CNS. Also, the GI50 with A549 NSCLC was 0.0215 µM; in the experiment on CAKI-1 renal, 0.00752 µM; with HL-60(TB) leukemia it was 0.00226 µM; with HOP-62 NSCLC it was 0.00296 µM; in the experiment on MALME-3M melanoma it was 0.00501 µM; in the experiment with NCI-H460 lung, 0.00356 µM. Further, the GI50 in the experiment with PC-3 prostate was 0.0221 µM; in the experiment on SF-268 CNS, 0.0027 µM.

The values above are taken from PubChem BioAssay (NCI).
